Results from the supplement of paper PMC5303821, “Major sulfonate transporter Soa1 in Saccharomyces cerevisiae and considerable substrate diversity in its fungal family” (Nature Communications, 2017).
Where a name gives a salt, the structure may show the parent alone.

What was measured:
Conditions in all cases: sulfur source concentration 200 µM; S. cerevisiae S288C/BY sul1Δ sul2Δ soa1Δ with transporter ortholog inserted at SOA1 locus; sulfur-free B medium, 4% glucose, pH 6.5, sole sulfur source
[1] = tested on: Aspergillus nidulans_XP_681611; test: maximal growth rate with compound as sole sulfur source (OD600 per h); higher = better growth / uptake of the sulfur source
Method: (§1)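 S. cerevisiae sul1Δ sul2Δ soa1Δ strains expressing 20 fungal SOA1 orthologs (or no transporter, 'soa1 del') were grown in liquid sulfur-free B medium, 4% glucose, pH 6.5 (7 mM K2HPO4). The strains were sulfur-starved for 3 days beforehand. Each sulfur compound was the sole sulfur source at 200 µM (sulfate also at 40 mM). OD600 curves of duplicate cultures were averaged and fitted (logistic / Richards, GroFit) to give maximal growth rate, maximal density and lag phase; temperature not stated.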

[2] = tested on: Metarhizium robertsii_XP_007823832; test: as above
Method: as §1

[3] = tested on: Saccharomyces uvarum_SOA1; test: as above
Method: as §1

[4] = tested on: Aspergillus nidulans_XP_660563; test: as above
Method: as §1

[5] = tested on: Aspergillus nidulans_XP_660670; test: as above
Method: as §1

[6] = tested on: Aspergillus nidulans_CBF74694; test: as above
Method: as §1

[7] = tested on: Ogataea parapolymorpha_XP_013935289; test: as above
Method: as §1

[8] = tested on: Metarhizium robertsii_XP_007822519; test: as above
Method: as §1

[9] = tested on: Ogataea parapolymorpha_XP_013936897; test: as above
Method: as §1

soa1 del [10] = test: as above
Method: as §1

[11] = tested on: Aspergillus nidulans (IAM 2006)_astA; test: as above
Method: as §1

[12] = tested on: Aspergillus nidulans_XP_661711; test: as above
Method: as §1

[13] = tested on: Saccharomyces uvarum_SOA2; test: as above
Method: as §1

[14] = tested on: Metarhizium robertsii_XP_007821441; test: as above
Method: as §1

[15] = tested on: Ogataea parapolymorpha_XP_013932458; test: as above
Method: as §1

[16] = tested on: Saccharomyces cerevisiae_SOA1; test: as above
Method: as §1

[17] = tested on: Saccharomyces eubayanus_SOA1; test: as above
Method: as §1

[18] = tested on: Aspergillus nidulans_CBF80346; test: as above
Method: as §1

[19] = tested on: Fusarium oxysporum_ENH65823; test: as above
Method: as §1

[20] = tested on: Aspergillus nidulans_XP_661733; test: as above
Method: as §1

[21] = tested on: Saccharomyces eubayanus_SOA2; test: as above
Method: as §1

[22] = tested on: Metarhizium robertsii_XP_007823832; test: lag phase before growth; higher = slower start of growth
Method: as §1

[23] = tested on: Ogataea parapolymorpha_XP_013935289; test: as above
Method: as §1

[24] = tested on: Aspergillus nidulans (IAM 2006)_astA; test: as above
Method: as §1

[25] = tested on: Saccharomyces cerevisiae_SOA1; test: as above
Method: as §1

[26] = tested on: Aspergillus nidulans_XP_681611; test: maximal culture density with compound as sole sulfur source (OD600); higher = better growth
Method: as §1

[27] = tested on: Metarhizium robertsii_XP_007823832; test: as above
Method: as §1

[28] = tested on: Saccharomyces uvarum_SOA1; test: as above
Method: as §1

[29] = tested on: Aspergillus nidulans_XP_660563; test: as above
Method: as §1

[30] = tested on: Aspergillus nidulans_XP_660670; test: as above
Method: as §1

[31] = tested on: Aspergillus nidulans_CBF74694; test: as above
Method: as §1

[32] = tested on: Ogataea parapolymorpha_XP_013935289; test: as above
Method: as §1

[33] = tested on: Metarhizium robertsii_XP_007822519; test: as above
Method: as §1

[34] = tested on: Ogataea parapolymorpha_XP_013936897; test: as above
Method: as §1

soa1 del [35] = test: as above
Method: as §1

[36] = tested on: Aspergillus nidulans (IAM 2006)_astA; test: as above
Method: as §1

[37] = tested on: Aspergillus nidulans_XP_661711; test: as above
Method: as §1

[38] = tested on: Saccharomyces uvarum_SOA2; test: as above
Method: as §1

[39] = tested on: Metarhizium robertsii_XP_007821441; test: as above
Method: as §1

[40] = tested on: Ogataea parapolymorpha_XP_013932458; test: as above
Method: as §1

[41] = tested on: Saccharomyces cerevisiae_SOA1; test: as above
Method: as §1

[42] = tested on: Saccharomyces eubayanus_SOA1; test: as above
Method: as §1

[43] = tested on: Aspergillus nidulans_CBF80346; test: as above
Method: as §1

[44] = tested on: Fusarium oxysporum_ENH65823; test: as above
Method: as §1

[45] = tested on: Aspergillus nidulans_XP_661733; test: as above
Method: as §1

[46] = tested on: Saccharomyces eubayanus_SOA2; test: as above
Method: as §1

[47] = tested on: Saccharomyces uvarum_SOA2; test: lag phase before growth; higher = slower start of growth
Method: as §1

[48] = tested on: Aspergillus nidulans_XP_661733; test: as above
Method: as §1

C[N+](C)(C)CCOS(=O)(=O)[O-] [Choline sulfate]
maximal growth rate [1]: 0.0057 | maximal growth rate [2]: 0.0809 | maximal growth rate [3]: 0.00649 | maximal growth rate [4]: 0.0061 | maximal growth rate [5]: 0.00346 | maximal growth rate [6]: 0.00254 | maximal growth rate [7]: 0.072 | maximal growth rate [8]: 0.00309 | maximal growth rate [9]: 0.00441 | maximal growth rate (soa1 del [10]): 0.00393 | maximal growth rate [11]: 0.0987 | maximal growth rate [12]: 0.00345 | maximal growth rate [13]: 0.00318 | maximal growth rate [14]: 0.00312 | maximal growth rate [15]: 0.00365 | maximal growth rate [16]: 0.0576 | maximal growth rate [17]: 0.0058 | maximal growth rate [18]: 0.00384 | maximal growth rate [19]: 0.00381 | maximal growth rate [20]: 0.00364 | maximal growth rate [21]: 0.00319 | lag phase before growth [22]: 8.32 h | lag phase before growth [23]: 19.4 h | lag phase before growth [24]: 6.39 h | lag phase before growth [25]: 28.7 h | maximal culture density [26]: 0.352 | maximal culture density [27]: 1.61 | maximal culture density [28]: 0.69 | maximal culture density [29]: 0.381 | maximal culture density [30]: 0.282 | maximal culture density [31]: 0.215 | maximal culture density [32]: 1.6 | maximal culture density [33]: 0.238 | maximal culture density [34]: 0.335 | maximal culture density (soa1 del [35]): 0.22 | maximal culture density [36]: 1.61 | maximal culture density [37]: 0.282 | maximal culture density [38]: 0.237 | maximal culture density [39]: 0.25 | maximal culture density [40]: 0.288 | maximal culture density [41]: 1.59 | maximal culture density [42]: 0.49 | maximal culture density [43]: 0.245 | maximal culture density [44]: 0.284 | maximal culture density [45]: 0.257 | maximal culture density [46]: 0.202

O=C(O)CS(=O)(=O)O [Sulfoacetic acid]
maximal growth rate [1]: 0.00636 | maximal growth rate [2]: 0.0177 | maximal growth rate [3]: 0.00282 | maximal growth rate [4]: 0.00621 | maximal growth rate [5]: 0.00401 | maximal growth rate [6]: 0.00286 | maximal growth rate [7]: 0.0296 | maximal growth rate [8]: 0.00308 | maximal growth rate [9]: 0.00474 | maximal growth rate (soa1 del [10]): 0.00385 | maximal growth rate [11]: 0.0131 | maximal growth rate [12]: 0.00399 | maximal growth rate [13]: 0.0314 | maximal growth rate [14]: 0.00346 | maximal growth rate [15]: 0.00439 | maximal growth rate [16]: 0.0325 | maximal growth rate [17]: 0.0033 | maximal growth rate [18]: 0.00462 | maximal growth rate [19]: 0.00684 | maximal growth rate [20]: 0.0174 | maximal growth rate [21]: 0.00305 | lag phase before growth [23]: 8.28 h | lag phase before growth [47]: 38.2 h | lag phase before growth [25]: 9.42 h | lag phase before growth [48]: 26.9 h | maximal culture density [26]: 0.3 | maximal culture density [27]: 0.712 | maximal culture density [28]: 0.391 | maximal culture density [29]: 0.308 | maximal culture density [30]: 0.222 | maximal culture density [31]: 0.183 | maximal culture density [32]: 1.33 | maximal culture density [33]: 0.282 | maximal culture density [34]: 0.275 | maximal culture density (soa1 del [35]): 0.216 | maximal culture density [36]: 0.731 | maximal culture density [37]: 0.223 | maximal culture density [38]: 1.01 | maximal culture density [39]: 0.225 | maximal culture density [40]: 0.251 | maximal culture density [41]: 1.28 | maximal culture density [42]: 0.274 | maximal culture density [43]: 0.223 | maximal culture density [45]: 0.777 | maximal culture density [46]: 0.211
